Experiments:
[1] = tested on: Enterococcus faecium MDR Van A ATCC 51559; test: MIC assay, E. faecium MDR Van A ATCC 51559; format: cell-based; settings: 24 h incubation, visual reading
Method in brief: (§1)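 Mid-log cultures in MHB were added at 5×10e5 CFU/mL to compounds diluted twofold from 8 to 0.003 μg/ml. Visual inspection after 24 h incubation at 37° C. gave the MIC, the lowest concentration without visible growth.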

MRSA (Strain ATCC 43300) = test: Murine thigh infection model (MRSA); format: in vivo, Staphylococcus aureus; settings: neutropenic CD1 mice
Method: Summary: Adult (8 week old) female CD1 mice were made neutropenic by two injections of cyclophosphamide 4 days and 1 day prior to infection. An inoculum of 10^5 cfu MRSA (Strain ATCC 43300) was injected intramuscularly into both left and right thighs of all mice. […] After an additional two hours, a 50 μL sample of blood was obtained from the tail bleed to analyse for presence of antibiotic compound. […] Thighs were then removed, weighed and homogenised in a fixed volume of saline. The homogenate solution was filtered, diluted and seeded onto agar plates, which were incubated overnight at 37° C. Colony counts were used to establish the cfu in the thigh homogenates, the cfu/thigh, and the cfu/g of thigh.
Compound preparation: Cyclophosphamide monohydrate (Sigma) was dissolved in sterile saline to a concentration of 30 mg/mL. Likewise, vancomycin (Sigma) and MCC compounds were also dissolved in sterile saline to a final concentration of 60 mg/mL and 18.5 mg/mL respectively. All compounds were prepared in low binding Eppendorf tubes and kept at −20° C. until used.
In vivo experimental assay: Eight week old female outbred CD1 mice (UQBR-AIBN) were rendered neutropenic by injecting two doses of cyclophosphamide intraperitoneally 4 days (150 mg/kg) and 1 day (100 mg/kg) prior to experimental infection. The infection model using MRSA was established by intramuscular injection of 50 μL of early-log-phase bacterial MRSA suspension (around 2×10^6 cfu/mL) in saline into both thigh muscles. […] Untreated animals received equivalent volume of saline (Baxter). The mice were monitored for signs of normal behaviour (i.e. grooming, eating, drinking, sleeping, and alertness) during and following dosing. Two hours after saline/antibiotic treatment, 0.05 mL of blood was collected by tail incision. 24 hours after MRSA infection, mice were euthanized and blood collected from the heart by cardiac puncture (saline group) or by tail incision (Vancomycin and MCC compound treated groups) as outlined in FIG. 1. For each mouse, both thighs were collected aseptically by cutting the leg at the hip and knee, placed in 10 mL of cold sterile saline and the individual weight of each thigh recorded.
Preparation of injectable MRSA solution: An MRSA subculture bacterial isolate (ATCC43300) was taken from the storage at −80° C. and freshly seeded on agar plates for overnight (O/N) growth. From the O/N culture preparation, a single colony was diluted into 10-12 mL of Mueller Hinton broth (MHB) and incubated O/N at 37° C. A log-phase subculture was obtained by adding 100 μL of O/N subculture in 10 mL MHB and incubated for a further 2-3 hours. Finally, the OD600 value of the bacterial suspension was determined and the colony forming units per millilitre (cfu/mL) extrapolated. A full dilution of the bacterial cell suspension in saline was achieved by washing (3220×g for 10 min) and the OD600 in saline determined. The suspension was then diluted out accordingly in order to achieve a 2×10^6 cfu/mL solution (10^5 cfu in 50 μL/thigh).
Thus, 10 μL of the injectable MRSA suspension was diluted down to 10-1000 fold, each dilution plated out onto agar plates and incubated at 37° C. for 24 hours.
Thigh homogenates and CFU determination: Thighs were homogenized at 20,000 rpm for 15 seconds using a Polytron MR2500E using a […] probe (all Kinematica).

[2] = tested on: Staphylococcus aureus MRSA ATCC 43300; test: MIC assay, S. aureus MRSA ATCC 43300; format: cell-based; settings: 24 h incubation, visual reading
Method in brief: as §1

[3] = tested on: Streptococcus pneumoniae MDR ATCC 700677; test: MIC assay, S. pneumoniae MDR ATCC 700677; format: cell-based; settings: 24 h incubation, visual reading
Method in brief: as §1

[4] = single subcutaneous dose 10 mg/kg
[5] = single subcutaneous dose 50 mg/kg

Structure (SMILES) | Minimum Inhibitory Concentration (MIC) E. faecium ATCC51559 [1] | Average Reduction log Δcfu MRSA/thigh after 26 h (MRSA (Strain ATCC 43300); [4]) | Minimum Inhibitory Concentration (MIC) Staph. aureus ATCC43300 [2] | Minimum Inhibitory Concentration (MIC) S. pneumoniae ATCC 700677 [3] | Average Reduction log Δcfu MRSA/thigh after 26 h (MRSA (Strain ATCC 43300); [5])
CCCCCCCCCC(=O)N[C@@H](CCCCN)C(=O)N[C@@H](CCCCN)C(=O)N[C@@H](CCCCN)C(=O)NCCCNC(=O)[C@H]1NC(=O)[C@H]2NC(=O)[C@H](NC(=O)[C@@H]3NC(=O)[C@H](CC(N)=O)NC(=O)[C@H](NC(=O)[C@@H](CC(C)C)NC)[C@H](O)c4ccc(c(Cl)c4)Oc4cc3cc(c4O[C@@H]3O[C@H](CO)[C@@H](O)[C@H](O)[C@H]3O[C@H]3C[C@](C)(N)[C@H](O)[C@H](C)O3)Oc3ccc(cc3Cl)[C@H]2O)c2ccc(O)c(c2)-c2c(O)cc(O)cc21 [MCC_005201] | xx (xx = 1-4) | xx (xx = 2-4) | xxxx (xxxx = 0.01-<0.1) | xxxx (xxxx = 0.01-<0.1) | 
CCCCCCCC(=O)N[C@@H](CCCCN)C(=O)NCCCNC(=O)[C@H]1NC(=O)[C@H]2NC(=O)[C@H](NC(=O)[C@@H]3NC(=O)[C@H](CC(N)=O)NC(=O)[C@H](NC(=O)[C@@H](CC(C)C)NC)[C@H](O)c4ccc(c(Cl)c4)Oc4cc3cc(c4O[C@@H]3O[C@H](CO)[C@@H](O)[C@H](O)[C@H]3O[C@H]3C[C@](C)(N)[C@H](O)[C@H](C)O3)Oc3ccc(cc3Cl)[C@H]2O)c2ccc(O)c(c2)-c2c(O)cc(O)cc21 [MCC_005202] | x (x = >4) | xx (xx = 2-4) | xxx (xxx = 0.1-<1) | xxx (xxx = 0.1-<1) | 
CCCCCCCCC(=O)N[C@@H](CCCCN)C(=O)N[C@@H](CCCCNC(=O)[C@H]1NC(=O)[C@H]2NC(=O)[C@H](NC(=O)[C@@H]3NC(=O)[C@H](CC(N)=O)NC(=O)[C@H](NC(=O)[C@@H](CC(C)C)NC)[C@H](O)c4ccc(c(Cl)c4)Oc4cc3cc(c4O[C@@H]3O[C@H](CO)[C@@H](O)[C@H](O)[C@H]3O[C@H]3C[C@](C)(N)[C@H](O)[C@H](C)O3)Oc3ccc(cc3Cl)[C@H]2O)c2ccc(O)c(c2)-c2c(O)cc(O)cc21)C(=O)O [MCC_005223] | x (x = >4) | x (x = 0-2) | xxx (xxx = 0.1-<1) | xx (xx = 1-4) | 
CCCCCCCCC(=O)N[C@@H](CCCCN)C(=O)N[C@@H](CCCCN)C(=O)N[C@@H](CCCCNC(=O)[C@H]1NC(=O)[C@H]2NC(=O)[C@H](NC(=O)[C@@H]3NC(=O)[C@H](CC(N)=O)NC(=O)[C@H](NC(=O)[C@@H](CC(C)C)NC)[C@H](O)c4ccc(c(Cl)c4)Oc4cc3cc(c4O[C@@H]3O[C@H](CO)[C@@H](O)[C@H](O)[C@H]3O[C@H]3C[C@](C)(N)[C@H](O)[C@H](C)O3)Oc3ccc(cc3Cl)[C@H]2O)c2ccc(O)c(c2)-c2c(O)cc(O)cc21)C(=O)O [MCC_005226] | x (x = >4) | x (x = 0-2) | xxx (xxx = 0.1-<1) | xxx (xxx = 0.1-<1) | 
CNC(CC(C)C)C(=O)NC1C(=O)NC(CC(N)=O)C(=O)NC2C(=O)NC3C(=O)NC(C(=O)NC(C(=O)NCCCNC(=O)C(CCCCN)NC(=O)C(CCCCN)NC(=O)c4ccc(Cl)cc4)c4cc(O)cc(O)c4-c4cc3ccc4O)C(O)c3ccc(c(Cl)c3)Oc3cc2cc(c3OC2OC(CO)C(O)C(O)C2OC2CC(C)(N)C(O)C(C)O2)Oc2ccc(cc2Cl)C1O (centres unmarked) [MCC_005362] | xx (xx = 1-4) | x (x = 0-2) | xxx (xxx = 0.1-<1) | xxx (xxx = 0.1-<1) | xxx (xxx = 4-6)
CNC(CC(C)C)C(=O)NC1C(=O)NC(CC(N)=O)C(=O)NC2C(=O)NC3C(=O)NC(C(=O)NC(C(=O)NCCCNC(=O)C(CCCCN)NC(=O)C(CCCCN)NC(=O)CC4CCCCC4)c4cc(O)cc(O)c4-c4cc3ccc4O)C(O)c3ccc(c(Cl)c3)Oc3cc2cc(c3OC2OC(CO)C(O)C(O)C2OC2CC(C)(N)C(O)C(C)O2)Oc2ccc(cc2Cl)C1O (centres unmarked) [MCC_005363] | x (x = >4) |  | xxx (xxx = 0.1-<1) | xxx (xxx = 0.1-<1) | xxx (xxx = 4-6)
CNC(CC(C)C)C(=O)NC1C(=O)NC(CC(N)=O)C(=O)NC2C(=O)NC3C(=O)NC(C(=O)NC(C(=O)NCCCNC(=O)C(CCCCN)NC(=O)C(CCCCN)NC(=O)c4ccc(Oc5ccccc5)cc4)c4cc(O)cc(O)c4-c4cc3ccc4O)C(O)c3ccc(c(Cl)c3)Oc3cc2cc(c3OC2OC(CO)C(O)C(O)C2OC2CC(C)(N)C(O)C(C)O2)Oc2ccc(cc2Cl)C1O (centres unmarked) [MCC_005364] | xx (xx = 1-4) | xx (xx = 2-4) | xxxxx (xxxxx = <0.01) | xxxx (xxxx = 0.01-<0.1) | 
CNC(CC(C)C)C(=O)NC1C(=O)NC(CC(N)=O)C(=O)NC2C(=O)NC3C(=O)NC(C(=O)NC(C(=O)NCCCNC(=O)C(CCCCN)NC(=O)C(CCCCN)NC(=O)CCCOc4ccccc4)c4cc(O)cc(O)c4-c4cc3ccc4O)C(O)c3ccc(c(Cl)c3)Oc3cc2cc(c3OC2OC(CO)C(O)C(O)C2OC2CC(C)(N)C(O)C(C)O2)Oc2ccc(cc2Cl)C1O (centres unmarked) [MCC_005365] | x (x = >4) |  | xxx (xxx = 0.1-<1) | xxx (xxx = 0.1-<1) | xx (xx = 2-4)
CCCCCCCCCC(=O)N[C@@H](CCCNC(=N)N)C(=O)NCCCNC(=O)[C@H]1NC(=O)[C@H]2NC(=O)[C@H](NC(=O)[C@@H]3NC(=O)[C@H](CC(N)=O)NC(=O)[C@H](NC(=O)[C@@H](CC(C)C)NC)[C@H](O)c4ccc(c(Cl)c4)Oc4cc3cc(c4O[C@@H]3O[C@H](CO)[C@@H](O)[C@H](O)[C@H]3O[C@H]3C[C@](C)(N)[C@H](O)[C@H](C)O3)Oc3ccc(cc3Cl)[C@H]2O)c2ccc(O)c(c2)-c2c(O)cc(O)cc21 [MCC_005481] | x (x = >4) | xxx (xxx = 4-6) | xxxxx (xxxxx = <0.01) | xxxx (xxxx = 0.01-<0.1) | 
CCCCCCCC(O)CC(=O)N[C@@H](CCCCN)C(=O)N[C@@H](CCCCN)C(=O)NCCCNC(=O)[C@H]1NC(=O)[C@H]2NC(=O)[C@H](NC(=O)[C@@H]3NC(=O)[C@H](CC(N)=O)NC(=O)[C@H](NC(=O)[C@@H](CC(C)C)NC)[C@H](O)c4ccc(c(Cl)c4)Oc4cc3cc(c4O[C@@H]3O[C@H](CO)[C@@H](O)[C@H](O)[C@H]3O[C@H]3C[C@](C)(N)[C@H](O)[C@H](C)O3)Oc3ccc(cc3Cl)[C@H]2O)c2ccc(O)c(c2)-c2c(O)cc(O)cc21 (some centres unmarked) [MCC_005483] | x (x = >4) | xxx (xxx = 4-6) | xxxx (xxxx = 0.01-<0.1) | xxxx (xxxx = 0.01-<0.1) | 

— patent US10947271B2, “Antibacterial agents” (THE UNIVERSITY OF QUEENSLAND, priority 2014, dated 2021)
